Assay results from patent publication US20040002465A1, “Polyene macrolide derivatives, use for vectoring molecules” (UNIVERSITE PIERRE ET MARIE CURIE, priority 1998, published 2004).
Converted amounts (≈) assume the structure as drawn.

How the values were obtained:
[1] = test system: ATCC 10261 Candida albicans; assay: Antifungal activity, growth inhibition of Candida albicans culture; type: cell-based; details: concentration inducing 50% inhibition of strain growth; liquid Sabouraud medium, 24 hours at 30° C., spectrophotometry at 660 nm
Procedure: More particularly, each compound was incubated at different concentrations with a culture of ATCC 10261 Candida albicans (inoculum, […]) in liquid Sabouraud medium for 24 hours at 30° C. Cell growth was then measured by spectrophotometry at a wavelength of 660 nm.

[2] = test system: 27-mer oligonucleotide (ODN) in 10% (v/v) foetal calf serum; assay: Seric degradation of delivered oligonucleotide, gel autoradiography; details: +/− charge ratio 10, 10% (v/v) foetal calf serum, 37° C., up to 16 hours; versus non delivered ODN
Procedure: A 27-mer oligonucleotide (ODN) was rendered radioactive by labelling at the 5′ end with ^32P using a standard procedure (Pharmacia) using T4 polynucleotide kinase and ^32(γ)ATP. A small quantity of this ^32P labelled ODN was mixed with cold ODN. AmA was added in a concentration such that the +/− charge ratio was 10 and the complex was allowed to form at ambient temperature for 30 minutes. A sample containing no AmA constituted the control (non delivered ODN). ODN degradation was triggered at time 0 at 37° C. by adding 10% (v/v) foetal calf serum in which the enzymatic activity was essentially 3′-exonucleasic (Sirotkin, Cooley et al., 1978). At intervals, samples were removed for which the action of the enzymes was stopped by adding formamide and placing the tube in ice. The reaction wsa stopped after 4, 6, 8 and 16 hours of incubation with the serum. The samples were then migrated on a denaturing (7 M urea) 20% polyacrylamide gel.

[3] = test system: 3T3 cells; assay: Internalisation of FITC-labelled antisense oligonucleotide, confocal microspectrofluorimetry; type: cell-based; details: 4 hours
[4] = test system: 3T3 cells; assay: Toxicity of AmA with or without antisense oligonucleotide, MTT cellular viability; details: 4 hours at 37° C.
[5] = test system: P-gp in NIH-MDR G185 cells (3T3 R); type: cell-based, human
Sequence of P-gp in NIH-MDR G185 cells (3T3 R) (P08183 whole entry): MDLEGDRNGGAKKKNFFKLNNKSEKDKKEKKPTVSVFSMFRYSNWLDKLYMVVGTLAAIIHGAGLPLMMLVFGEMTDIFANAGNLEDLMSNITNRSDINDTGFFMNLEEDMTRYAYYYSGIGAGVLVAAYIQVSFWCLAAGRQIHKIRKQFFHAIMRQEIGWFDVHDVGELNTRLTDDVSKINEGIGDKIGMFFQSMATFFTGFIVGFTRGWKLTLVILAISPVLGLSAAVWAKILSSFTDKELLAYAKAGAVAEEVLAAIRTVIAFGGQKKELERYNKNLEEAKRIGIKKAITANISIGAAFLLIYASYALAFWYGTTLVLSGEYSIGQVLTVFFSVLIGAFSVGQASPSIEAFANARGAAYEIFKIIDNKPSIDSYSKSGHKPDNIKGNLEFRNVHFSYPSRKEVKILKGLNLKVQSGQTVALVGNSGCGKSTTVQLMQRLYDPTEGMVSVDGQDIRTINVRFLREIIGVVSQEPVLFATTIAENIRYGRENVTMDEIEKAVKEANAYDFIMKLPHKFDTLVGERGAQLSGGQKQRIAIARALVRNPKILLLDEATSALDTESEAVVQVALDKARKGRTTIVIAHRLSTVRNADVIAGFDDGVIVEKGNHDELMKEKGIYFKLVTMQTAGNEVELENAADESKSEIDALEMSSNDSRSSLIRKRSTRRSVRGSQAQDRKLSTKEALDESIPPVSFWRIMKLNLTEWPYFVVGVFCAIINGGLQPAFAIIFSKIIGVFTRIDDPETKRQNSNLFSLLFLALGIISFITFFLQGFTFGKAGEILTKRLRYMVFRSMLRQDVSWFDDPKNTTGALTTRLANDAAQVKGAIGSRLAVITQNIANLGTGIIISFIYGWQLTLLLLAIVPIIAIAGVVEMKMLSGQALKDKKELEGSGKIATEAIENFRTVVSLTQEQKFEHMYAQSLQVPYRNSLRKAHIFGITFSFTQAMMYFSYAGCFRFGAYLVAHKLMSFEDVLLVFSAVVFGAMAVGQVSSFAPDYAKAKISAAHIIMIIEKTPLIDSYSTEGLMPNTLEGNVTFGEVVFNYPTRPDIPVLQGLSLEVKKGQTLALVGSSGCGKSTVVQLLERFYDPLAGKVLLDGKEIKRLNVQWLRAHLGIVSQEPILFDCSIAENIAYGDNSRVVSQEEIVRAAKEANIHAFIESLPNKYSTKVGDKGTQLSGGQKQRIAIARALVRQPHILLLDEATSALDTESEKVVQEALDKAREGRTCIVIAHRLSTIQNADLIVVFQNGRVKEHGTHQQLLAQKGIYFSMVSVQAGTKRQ

[6] = test system: MCF 7 cells; assay: Internalisation of FITC-labelled anti-gene oligonucleotide; type: cell-based, human; details: charge ratio 5, compared with AmE, Lipofectine or free oligonucleotides

Question: How did the IC50 [1] turn out when `CC1C=CC=CC=CC=CC=CC=CC=CC(OC2OC(C)C(O)C(N)C2O)CC2OC(O)(CC(O)CC(O)C(O)CCC(O)CC(O)CC(=O)OC(C)C(C)C1O)CC(O)C2C(=O)NCCc1ccccn1` (stereo not drawn) [AMPEA, Amphotericin B 2-(2-pyridyl)ethylamide] was run?
Answer: The IC50 was 0.015 µg/mL (≈ 0.0146 µM).

Question: With “Amphotericin B-2-(morpholyl)ethylamide [AMMEA]” as the compound, how does the IC50 [1] read?
Answer: Its IC50 is 0.013 µg/mL.

Question: How did the IC50 [1] turn out when “N-(4-methyl-1-piperazinepropionyl)AME [PNAME]” was run?
Answer: Its IC50 is 0.16 µg/mL.

Question: What does the source list for “Amphotericin B dimethylaminopropylamide [AMA]”?
Answer: seric degradation of the delivered oligonucleotide [2]: slowed that degradation; intracellular distribution of fluorescence ([3]; nucleus versus cytoplasm): distributed homogeneously inside the cells; internalisation of fluorescent oligonucleotide (fluorescence intensity of cells) ([3]; AmA 1×10^−5 M and 2×10^−5 M, compared with AmE, Lipofectine (20 μg/ml) or the oligonucleotides alone): much greater internalisation; concentration below which cell growth appears to have been stimulated ([4]; MTT): below 10^−5 M; concentration below which no toxicity was observed (cellular viability, MTT) ([4]; serum-free DMEM, AmA in the presence or absence of oligonucleotide): below 2×10^−5 M; synthesis of P-gp, possible vector effect [5]: did not itself inhibit synthesis of P-gp; internalisation of fluorescent oligonucleotide (fluorescence intensity of cells) [6]: much greater internalisation

Question: For “N-(4-methyl-1-piperazinepropionyl) AMPA [PAMPA]”, which IC50 [1] is on record?
Answer: The IC50 was 0.17 µg/mL.

Question: Which IC50 [1] does the source give for N-(1-piperdinepropionyl) AME [PAME] here?
Answer: The IC50 was 0.15 µg/mL.

Question: How did the IC50 [1] turn out when “Amphotericin B 3-dimethylaminopropyl ester [AMPE]” was run?
Answer: Its IC50 is 0.10 µg/mL.

Question: Which IC50 [1] does the source give for `CC1C=CC=CC=CC=CC=CC=CC=CC(OC2OC(C)C(O)C(N)C2O)CC2OC(O)(CC(O)CC(O)C(O)CCC(O)CC(O)CC(=O)OC(C)C(C)C1O)CC(O)C2C(=O)N1CCN(C)CC1` (stereo not drawn) [AMPA, Amphotericin B B-4-methylpiperizyne amide] here?
Answer: The IC50 was 0.015 µg/mL (≈ 0.0149 µM).

Question: Which IC50 [1] does the source give for “N-(N′-3-dimethylaminopropyl-succinimido) amphotericin B methyl ester [SAME]” here?
Answer: Its IC50 is 0.125 µg/mL.

Question: For “Amphotericin B (N^2-lysyllysine methylester) amide [AMDLA]”, which IC50 [1] is on record?
Answer: The IC50 was 0.12 µg/mL.

Question: Which IC50 [1] does the source give for N-ornithyl-AMA [OAMA] here?
Answer: Its IC50 is 0.15 µg/mL.

Question: With “2-dimethylaminoethyl ester of amphotericin B [AMEE]” as the compound, how does the IC50 [1] read?
Answer: The IC50 was 0.08 µg/mL.

Question: “L-aspartate salt of OAMA [OAMA L-aspartate]” was tested. Which IC50 [1] did it give?
Answer: Its IC50 is 0.17 µg/mL.

Question: For Amphotericin B N1-sperminylamide [AMSA], which IC50 [1] is on record?
Answer: The IC50 was 0.10 µg/mL.

Question: With “N-(Nα, Nα, Nα,Nε, Nε, Nε,-hexamethyl) AME [MLAME]” as the compound, how does the IC50 [1] read?
Answer: Its IC50 is 0.15 µg/mL.
